The record followed here is the NIST ThermoML archive (doi:10.1021/je3002078).

For the series the following is noted: Liquid; for mass density: 101.33 kPa, Vibrating tube method; for vapor or sublimation pressure: Ebulliometric method (Recirculating still).

Structures are written as SMILES. Numbers after ± are expanded uncertainties.

The term mass density denotes mass per unit of volume. What is called vapor or sublimation pressure is the equilibrium pressure above the liquid or solid. On to `OCCCl` [1-chloro-2-hydroxyethane], for which the mass density by setting is: (303.15 K) 1192.48 ± 0.53 kg/m3; (308.15 K) 1186.44 ± 0.53 kg/m3. For the same compound, the “vapor or sublimation pressure” value (399.89 K) was 95.3 ± 7.1 kPa.
`NCCO` [2-aminoethan-1-ol]: the mass density is, setting by setting: (303.15 K) 1008.12 ± 0.51 kg/m3; (308.15 K) 1005.08 ± 0.51 kg/m3. Where the note is “442.28 K”, the “vapor or sublimation pressure” value came out at 95.3 ± 7.1 kPa.
Take `OCCc1ccccc1` [2-phenylethanol]: the mass density was 1012.65 ± 0.51 kg/m3 (303.15 K) and 1008.68 ± 0.51 kg/m3 (308.15 K). Further, the “vapor or sublimation pressure” value (489.79 K) came out at 95.3 ± 7.1 kPa.
Turning to `CN1CCCC1=O` [N-methylpyrrolidone], the mass density is, setting by setting: (303.15 K) 1023.45 ± 0.51 kg/m3; (308.15 K) 1013.34 ± 0.51 kg/m3. The “vapor or sublimation pressure” value (474.01 K) is recorded as 95.3 ± 7.1 kPa.
